{
  "source": "patent US20230226135A9",
  "about": "“ACETYLCHOLINE MODULATION OF IMMUNE FUNCTION” (BCell Solutions, Inc., priority 2019, published 2023)",
  "key": {"[1]": {"system": "IL17a", "test": "Preeclampsia model in pregnant mice (TLR agonists), IL17", "assay_type": "in vivo", "details": "PolyI:C or R837 induced; CAP i.p. (2 mg/kg, gestational day 13 elsewhere in the source)", "protocol": "FIG. 9. CAP reduces IL-17 production in a model of preeclampsia. Pregnant mice were treated with the TLR3 or […] agonists to induce symptoms of preeclampsia, followed by CAP treatment.\nIn a separate study, preeclampsia was induced in pregnant mice by injection of either the toll-like receptor 3 (TLR3) agonist, PolyI:C, or with the toll-like receptor 8 ([…]) agonist R837. […] It is pertinent to note that this power issue has been corrected.\n(§1) Preeclampsia, a disease suffered by pregnant woman that is characterized by high blood pressure and signs of damage to other organ systems, most often the liver and kidneys, is often accompanied by inflammation. […] Preeclampsia is also associated with an elevated TH17 response, including elevated IL17a, and elevated IL17a is associated with human and experimental hypertension and poor perinatal outcomes. […] Therefore, the anti-inflammatory effects of CAP were associated with improved outcomes in this model."}, "[2]": {"system": "blood brain barrier (BBB)", "test": "Intravital microscopy of BBB permeability and lymphocyte adhering/rolling in pial venules", "assay_type": "in vivo, C57 BL/6J mice", "description": "Whether intranasal infection with Streptococcus pyogenes would induce blood-brain barrier permeability in C57 BL/6J mice by a TLR-dependent mechanism was examined. Immediately following craniotomy, mice were placed under an intravital microscope to study vascular permeability and leukocytes. Permeability of cerebral blood vessels was observed using FITC-dextran fluorescent dye and, tracing of leukocytes is observed by labeling such cells with Rhodamine-6G. Intranasal infection with Streptococcus pyogenes (gram positive) increased BBB permeability (FIG. 4) and the number of adherent or rolling lymphocytes (FIG. 4) within 24 hours post-infection, compared to saline treated controls.\nMethods: To test the hypothesis that intranasal infection may increase BBB permeability, we exposed mice to GAS via intranasal infection with Streptococcus pyogenes (GAS). We assessed BBB permeability using intravital microscopy, and we characterized the immune response to GAS using flow cytometric analysis of nasal associated lymphoid tissue (NALT), spleen, and brain.\nIntranasal infection: Isoflurane gas was employed to briefly anesthetize mice (1-2 minutes). Once anesthetized, 7.5 uL of streptococcal bacterial suspension (OD600=0.5-0.6) was placed on each nares (outer nostril) of mouse. Control mice received intranasal inoculation with vehicle (PBS). The droplets were inhaled into nasal sinuses. This small volume avoids inoculation of the lungs, but reproducibly results in colonization of nasal-associated lymphoid tissue (NALT, Park 2003; Wang 2010).\nIntraperitoneal injection: The TLR 1/2 agonist, Pam-3-Cys (25 ug/mouse; Pam3CSK4, InvivoGen, San Diego Calif.) was intraperitoneally (right side) injected into mice 24 hours before intravital microscopy. P3C causes immune cell activation and polycolonal expansion of B-lymphocytes by Toll-Like receptor ligation (Newell 2010). Control mice received equal volume of vehicle (PBS) intraperitoneally.\nMHC class II-targeted proprietary peptide (TPP, Elim Biopharmaceuticals Inc., Hayward Calif.; also see Newell 2010) was administered intraperitoneally (5 ug/mouse, left side), sometimes in conjunction with P3C (right side). TPP was dissolved in DMSO for a final concentration of 2.5% DMSO in PBS. Control mice received vehicle (2.5% DMSO in PBS) intraperitoneally.\nPreparation of Mice: Mice were anesthetized with an (i.p.) injection of 50% urethane (Sigma-Aldrich, U2500) in PBS ([…]) and maintained on heating pad. Anesthetic plane was assessed throughout preparation and experiments, by response to toe pinch. If needed, urethane supplement was given at 10% of original dose volume. To prepare mice tails for intravenous (i.v.) dye injection we maintained anesthetized mice on a heating pad for 10-15 minutes, and then briskly wiped tails (toward tail-end) with 70% ethanol wipes to remove scales/hair and increase vasodilation. Immediately following tail wiping, Fluorescein dextran 10 kDa (10 mg/mL, Sigma-Aldrich, FD10S) was administered (2 uL/g mouse) via right lateral tail vein and, Rhodamine 6G (0.2 mg/mL, Sigma-Aldrich, 83697) was administered (1.6 uL/g mouse) via left lateral tail vein. When needed, tail was wiped multiple times to ensure clear visualization of tail veins. Following successful (i.v.) injection of dyes, mice underwent craniotomy.\nCraniotomy: A craniotomy (removal of a small area of skull) was performed to expose the cerebrum and allow imaging of cerebral microvasculature (specifically pial vessels of pia mater). First, an incision across the midline of the scalp was made to expose the right parietal bone. The skull was then carefully marked with a waterproof marker, designating the area, 1 mm posterior from the Bregma and 4 mm lateral from the midline, to be removed (craniotomy diameter: 2.5 mm). Next, the craniotomy was performed with a drill ensuring the dura mater was not cut. […]"}, "[3]": {"system": "CD8+ T cells", "test": "CAP-induced expansion of CD8+ T cells with or without α7nAChR antagonist", "assay_type": "in vivo", "details": "CAP treatment"}, "[4]": {"system": "IL1β and IL6", "test": "Collagen-induced arthritis model (collagen emulsion in CFA), pro-inflammatory cytokines", "assay_type": "in vivo, mice", "protocol": "FIG. 8. Collagen-induced arthritis model. Animals were injected with a collagen emulsion in Complete Freunds Adjuvant (CFA) and treated with either CAP during early disease development or once arthritic disease was established.\nCentral to the overarching hypothesis, is the anti-inflammatory effects of CAP.\nRheumatoid arthritis (RA), an autoimmune condition caused by the immune system attacking healthy body tissue by directing antibodies to the lining of the joints, where they attack the tissue surrounding the joint. In an established mouse model of RA, induced by injection of collagen and Complete Freunds Adjuvant (CFA), there is an increase in the pro-inflammatory cytokines, IL1B and IL6 (FIG. 17). […] Therefore, different doses of CAP appear to be effective in the developing versus the established stages of the disease. These changes were accompanied by a reduction in peripheral B cells. These findings are important because IL6 and IL1B are differentially elevated depending on the severity of various infections, such as SARS-CoV-2. Thus, testing different doses of CAP at different stages of infection will be helpful to optimizing translational therapy."}, "[5]": {"system": "CLIP+ B cells", "test": "CFA-induced arthritis model, CAP depletion of B cells with or without α7nAChR antagonist", "assay_type": "in vivo, mice", "protocol": "FIGS. 11A-11B. […] In this study, CAP was administered at 3 days after CFA, then once daily every 3 days, until day 10 after CFA.\nThe next series of experiments are focused on the effects of CAP on splenic immune cells. […] As part of this experiment, the mice were co-treated with CAP and the alpha-7 nicotinic acetylcholine receptor (α7nAChR) antagonist, methyllycaconitine (MCA)."}, "[6]": {"test": "Preeclampsia model in pregnant mice (TLR agonists), blood pressure", "assay_type": "in vivo", "details": "TLR agonist induced, CAP i.p. 2 mg/kg", "protocol": "FIG. 15. CAP reverses inflammatory characteristics in a preeclampsia model. Pregnant mice were treated with TLR agonists (R837, Clo97, and PIC) to induce symptoms of preeclampsia followed by CAP treatment (shown as TPP).\nas §1"}, "[7]": {"details": "TPP 5 ug/mouse i.p., 24 hours, listed as TPP"}},
  "note": "“Also recorded” adds a separate entry of the source.",
  "data": [
    {"sequence": "FRIMAVLAS [CAP, α7nAChR agonist]", "values": [
      {"measurement": "elevated IL17 (IL17a)", "setting": "[1]", "result": "significantly reduced"},
      {"measurement": "P3C-induced lymphocyte rolling", "setting": "[2]; TPP 5 ug/mouse i.p. with P3C, 24 hours", "result": "reduced"},
      {"measurement": "P3C-induced lymphocyte adhering", "setting": "[2]; TPP 5 ug/mouse i.p. with P3C, 24 hours, listed as TPP", "result": "reduced; also recorded: significantly reversed"},
      {"measurement": "streptococcal infection-induced lymphocyte adhering", "setting": "[2]; [7]", "result": "significantly reversed"},
      {"measurement": "streptococcal infection-induced lymphocyte rolling", "setting": "[2]; [7]", "result": "reversed; also recorded: reduced"},
      {"measurement": "size of adherent cells", "setting": "[2]; TPP in infected or P3C treated mice", "result": "did not attenuate"},
      {"measurement": "expansion of CD8+ T cells", "setting": "[3]", "result": "induce the expansion; also recorded: induces expansion"},
      {"measurement": "reducing IL1β and IL6", "setting": "[4]; 0.2 mg/kg i.p., developing stage", "result": "most efficacious"},
      {"measurement": "reducing IL1β and IL6", "setting": "[4]; 20 mg/kg i.p., established stage", "result": "most efficacious"},
      {"measurement": "peripheral B cells", "setting": "[4]; RA model, CAP i.p.", "result": "reduction"},
      {"measurement": "cytokines", "setting": "[4]; early or established disease, particularly in the established (late stage) model", "result": "dose dependent reduction"},
      {"measurement": "reducing IL1B and IL6", "setting": "[4]; i.p. 2 mg/kg, developing stage", "result": "most efficacious"},
      {"measurement": "CFA-induced B cell expansion", "setting": "[5]; 3x CAP treatment", "result": "reversed"},
      {"measurement": "number of CLIP+ B cells (pro-inflammatory B cell populations)", "setting": "[5]; CAP from 3 days after CFA, once every 3 days until day 10", "result": "significantly reduced; also recorded: selectively depletes"},
      {"measurement": "elevated blood pressure", "setting": "[6]", "result": "significantly reduced"}
    ]}
  ]
}
